Legend:
[1] = target: T1, recombinant human FLAP protein (Homo sapiens, UniProt P20292); assay: FLAP binding assay (Scintillation Proximity Assay, displacement of [125I]L-691,831); settings: recombinant human FLAP membranes, [125I]L-691,831 probe; read-out: FLAP SPA IC50
T1 construct: made in house; host or cells: Sf9 insect cells (100,000 x g membrane fraction)
T1 sequence (P20292 1-161): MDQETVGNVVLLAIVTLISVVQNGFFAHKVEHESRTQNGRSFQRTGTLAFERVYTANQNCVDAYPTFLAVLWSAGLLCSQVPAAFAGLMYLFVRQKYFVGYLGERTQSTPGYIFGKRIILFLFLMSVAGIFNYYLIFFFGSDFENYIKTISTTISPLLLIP
In short: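 WGA scintillation proximity beads were stirred 1 h with 5 μg of FLAP-containing membrane protein. The membranes came from baculovirus Sf9 cells, Dounce-lysed and spun to a 100,000×g pellet in buffer at pH 7.5.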

[2] = test system: synthesis of LTB4 in human whole blood; assay: human whole blood LTB4 production inhibition assay; format: cell-based; settings: Homo sapiens, heparinized human whole blood, calcimycin 20 μM; read-out: hWB LTB4 IC50
In short: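 Steps: compound plus heparinized human whole blood, 15 min at 37° C; add calcimycin to 20 μM final; incubate another 30 min at 37° C; centrifuge at low speed and collect plasma; measure LTB4 with a homogeneous time-resolved fluorescence immunoassay.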

Compound | IC50 [1] [nM] | IC50 [2] [nM]
CC(=O)NCCn1cc(-c2nc(C3(c4ccc(-c5cnc(N)nc5)cc4)CCC3)no2)cn1 [Example 229, N-{2-[4-(3-{1-[4-(2-Amino-pyrimidin-5-yl)-phenyl]-cyclobutyl}-[1,2,4]oxadiazol-5-yl)-pyrazol-1-yl]-ethyl}-acetamide] | 6 | 410
CSCCn1cc(-c2nc(C3(c4ccc(-c5cnc(N)nc5)cc4)CCC3)no2)cn1 [Example 230, 5-[4-(1-{5-[1-(2-Methylsulfanyl-ethyl)-1H-pyrazol-4-yl]-[1,2,4]oxadiazol-3-yl}-cyclobutyl)-phenyl]-pyrimidin-2-ylamine] | 1.3 | 64
CS(=O)(=O)CCn1cc(-c2nc(C3(c4ccc(-c5cnc(N)nc5)cc4)CCC3)no2)cn1 [Example 231, 5-[4-(1-{5-[1-(2-Methanesulfonyl-ethyl)-1H-pyrazol-4-yl]-[1,2,4]oxadiazol-3-yl}-cyclobutyl)-phenyl]-pyrimidin-2-ylamine] | 2.3 | 61
Nc1ncc(-c2ccc(C3(c4noc(-c5cnn(CCN6CCOCC6)c5)n4)CCC3)cc2)cn1 [Example 232, 5-[4-(1-{5-[1-(2-Morpholin-4-yl-ethyl)-1H-pyrazol-4-yl]-[1,2,4]oxadiazol-3-yl}-cyclobutyl)-phenyl]-pyrimidin-2-ylamine] | 1.8 | 26
Nc1ncc(-c2ccc(C3(c4noc(-c5cnn(C6CCNCC6)c5)n4)CCC3)cc2)cn1 [Example 233, 5-(4-{1-[5-(1-Piperidin-4-yl-1H-pyrazol-4-yl)-[1,2,4]oxadiazol-3-yl]-cyclobutyl}-phenyl)-pyrimidin-2-ylamine] | 9.8 | 700
COC1CCN(C(=O)Cn2cc(-c3nc(C4(c5ccc(-c6cnc(N)nc6)cc5)CCC4)no3)cn2)CC1 [Example 234, 2-[4-(3-{1-[4-(2-Amino-pyrimidin-5-yl)-phenyl]-cyclobutyl}-[1,2,4]oxadiazol-5-yl)-pyrazol-1-yl]-1-(4-methoxy-piperidin-1-yl)-ethanone] | 3.5 | 82
CN(C(=O)Cn1cc(-c2nc(C3(c4ccc(-c5cnc(N)nc5)cc4)CCC3)no2)cn1)C1CCOCC1 [Example 235, 2-[4-(3-{1-[4-(2-Amino-pyrimidin-5-yl)-phenyl]-cyclobutyl}-[1,2,4]oxadiazol-5-yl)-pyrazol-1-yl]-N-methyl-N-(tetrahydro-pyran-4-yl)-acetamide] | 1.7 | 67
COC1CN(C(=O)Cn2cc(-c3nc(C4(c5ccc(-c6cnc(N)nc6)cc5)CCC4)no3)cn2)C1 [Example 236, 2-[4-(3-{1-[4-(2-Amino-pyrimidin-5-yl)-phenyl]-cyclobutyl}-[1,2,4]oxadiazol-5-yl)-pyrazol-1-yl]-1-(3-methoxy-azetidin-1-yl)-ethanone] | 5.6 | 230
Nc1ncc(-c2ccc(C3(c4noc(-c5cnn(CC(=O)NC6CCNCC6)c5)n4)CCC3)cc2)cn1 [Example 237, 2-[4-(3-{1-[4-(2-Amino-pyrimidin-5-yl)-phenyl]-cyclobutyl}-[1,2,4]oxadiazol-5-yl)-pyrazol-1-yl]-N-piperidin-4-yl-acetamide] | 2 | > 5000
N#CCn1cc(-c2nc(C3(c4ccc(-c5cnc(N)nc5)cc4)CCC3)no2)cn1 [Example 238, [4-(3-{1-[4-(2-Amino-pyrimidin-5-yl)-phenyl]-cyclobutyl}-[1,2,4]oxadiazol-5-yl)-pyrazol-1-yl]-acetonitrile] | 1 | 37
Nc1ncc(-c2ccc(C3(c4noc(-c5cnn(CC(=O)N6CCC(O)C6)c5)n4)CCC3)cc2)cn1 (stereo not drawn) [Example 239, 2-[4-(3-{1-[4-(2-Amino-pyrimidin-5-yl)-phenyl]-cyclobutyl}-[1,2,4]oxadiazol-5-yl)-pyrazol-1-yl]-1-(3-hydroxy-pyrrolidin-1-yl)-ethanone] | 6.2 | 2500
CN(C)CCn1cc(-c2nc(C3(c4ccc(-c5cnc(N)nc5)cc4)CCC3)no2)cn1 [Example 240, 5-[4-(1-{5-[1-(2-Dimethylamino-ethyl)-1H-pyrazol-4-yl]-[1,2,4]oxadiazol-3-yl}-cyclobutyl)-phenyl]-pyrimidin-2-ylamine] | 3.6 | 47
COCCN(C)C(=O)Cn1cc(-c2nc(C3(c4ccc(-c5cnc(N)nc5)cc4)CCC3)no2)cn1 [Example 241, 2-[4-(3-{1-[4-(2-Amino-pyrimidin-5-yl)-phenyl]-cyclobutyl}-[1,2,4]oxadiazol-5-yl)-pyrazol-1-yl]-N-(2-methoxy-ethyl)-N-methyl-acetamide] | 3.5 | 140
CN(CC1CCCO1)C(=O)Cn1cc(-c2nc(C3(c4ccc(-c5cnc(N)nc5)cc4)CCC3)no2)cn1 (stereo not drawn) [Example 242, 2-[4-(3-{1-[4-(2-Amino-pyrimidin-5-yl)-phenyl]-cyclobutyl}-[1,2,4]oxadiazol-5-yl)-pyrazol-1-yl]-N-methyl-N-(tetrahydro-furan-2-ylmethyl)-acetamide] | 5.4 | 120
CC(C)N1CCN(C(=O)Cn2cc(-c3nc(C4(c5ccc(-c6cnc(N)nc6)cc5)CCC4)no3)cn2)CC1 [Example 243, 2-[4-(3-{1-[4-(2-Amino-pyrimidin-5-yl)-phenyl]-cyclobutyl}-[1,2,4]oxadiazol-5-yl)-pyrazol-1-yl]-1-(4-isopropyl-piperazin-1-yl)-ethanone] | 8.5 | 200
Nc1ncc(-c2ccc(C3(c4noc(-c5cn(C(c6ccccc6)(c6ccccc6)c6ccccc6)cn5)n4)CCC3)cc2)cn1 [Example 244, 5-(4-{1-[5-(1-Trityl-1H-imidazol-4-yl)-[1,2,4]oxadiazol-3-yl]-cyclobutyl}-phenyl)-pyrimidin-2-ylamine] | 250 | > 5000
Cn1ccnc1-c1nc(C2(c3ccc(-c4cnc(N)nc4)cc3)CCC2)no1 [Example 245, 5-(4-{1-[5-(1-Methyl-1H-imidazol-2-yl)-[1,2,4]oxadiazol-3-yl]-cyclobutyl}-phenyl)-pyrimidin-2-ylamine] | 38 | 1700
N#CC1CCN(CCn2cc(-c3nc(C4(c5ccc(-c6cnc(N)nc6)cc5)CCC4)no3)cn2)CC1 [Example 246, 1-{2-[4-(3-{1-[4-(2-Amino-pyrimidin-5-yl)-phenyl]-cyclobutyl}-[1,2,4]oxadiazol-5-yl)-pyrazol-1-yl]-ethyl}-piperidine-4-carbonitrile] | 8.1 | 79
CN(C(=O)Cn1cc(-c2nc(C3(c4ccc(-c5cnc(N)nc5)cc4)CCC3)no2)cn1)C1CCCOC1 (stereo not drawn) [Example 247, 2-[4-(3-{1-[4-(2-Amino-pyrimidin-5-yl)-phenyl]-cyclobutyl}-[1,2,4]oxadiazol-5-yl)-pyrazol-1-yl]-N-methyl-N-(tetrahydro-pyran-3-yl)-acetamide] | 8.2 | 88
Cn1cc(-c2nc(C3(c4ccc(-c5ccc(C6CC6)nc5)cc4)CCC3)no2)cn1 [Example 248, 2-Cyclopropyl-5-(4-{1-[5-(1-methyl-1H-pyrazol-4-yl)-[1,2,4]oxadiazol-3-yl]-cyclobutyl}-phenyl)-pyridine] | 730 | > 5000
CC(CN(C)C)n1cc(-c2nc(C3(c4ccc(-c5cnc(N)nc5)cc4)CCC3)no2)cn1 (stereo not drawn) [Example 249, 5-[4-(1-{5-[1-(2-Dimethylamino-1-methyl-ethyl)-1H-pyrazol-4-yl]-[1,2,4]oxadiazol-3-yl}-cyclobutyl)-phenyl]-pyrimidin-2-ylamine] | 7.8 | 69
CC(=O)N1CCN(CCn2cc(-c3nc(C4(c5ccc(-c6cnc(N)nc6)cc5)CCC4)no3)cn2)CC1 [Example 250, 1-(4-{2-[4-(3-{1-[4-(2-Amino-pyrimidin-5-yl)-phenyl]-cyclobutyl}-[1,2,4]oxadiazol-5-yl)-pyrazol-1-yl]-ethyl}-piperazin-1-yl)-ethanone] | 8.6 | 220
CN(C)C(=O)Cn1cnc(-c2nc(C3(c4ccc(-c5cnc(N)nc5)cc4)CCC3)no2)c1 [Example 251, 2-[4-(3-{1-[4-(2-Amino-pyrimidin-5-yl)-phenyl]-cyclobutyl}-[1,2,4]oxadiazol-5-yl)-imidazol-1-yl]-N,N-dimethyl-acetamide] | 36 | 2200
Nc1ccc(-c2ccc(C3(c4noc(-c5cnn(C6COC6)c5)n4)CCC3)cc2)cn1 [Example 252, 5-(4-{1-[5-(1-Oxetan-3-yl-1H-pyrazol-4-yl)-[1,2,4]oxadiazol-3-yl]-cyclobutyl}-phenyl)-pyridin-2-ylamine] | 5.3 | 34
Nc1ncc(-c2ccc(C3(c4noc(-c5cnn(CCN6CCCC6)c5)n4)CCC3)cc2)cn1 [Example 253, 5-[4-(1-{5-[1-(2-Pyrrolidin-1-yl-ethyl)-1H-pyrazol-4-yl]-[1,2,4]oxadiazol-3-yl}-cyclobutyl)-phenyl]-pyrimidin-2-ylamine] | 8.1 | 75
CC(C)(O)Cn1cc(-c2nc(C3(c4ccc(-c5cnc(N)nc5)cc4)CC3)no2)cn1 [Example 254, 1-[4-(3-{1-[4-(2-Amino-pyrimidin-5-yl)-phenyl]-cyclopropyl}-[1,2,4]oxadiazol-5-yl)-pyrazol-1-yl]-2-methyl-propan-2-ol] | 190 | 4700
Nc1ncc(-c2ccc(C3(c4noc(-c5cnn(C6COC6)c5)n4)CC3)cc2)cn1 [Example 255, 5-(4-{1-[5-(1-Oxetan-3-yl-1H-pyrazol-4-yl)-[1,2,4]oxadiazol-3-yl]-cyclopropyl}-phenyl)-pyrimidin-2-ylamine] | 150 | 1900

From patent US8580829B2 (Boehringer Ingelheim International GmbH, priority 2010, dated 2013)
